Data as given in ChEMBL document CHEMBL3734673, “Potent chemical chaperone compounds for GM1-gangliosidosis: N-substituted (+)-conduramine F-4 derivatives” (Medchemcomm, 2015).
Substitutions are numbered along the chain they refer to. The source made the active and inactive calls. The rule behind the calls is not given here.

Legend:
[1] = Cytotoxicity against human fibroblasts at 200 uM by LDH assay; format: cell-based; conditions: fibroblast
[2] = system: T1, Beta-galactosidase (Homo sapiens), P16278 [R201C]; test: Activation of human beta-galactosidase R201C mutant expressed in mouse fibroblasts using 4-methylumbelliferone -conugated beta-D-galactoside as substrate at 20 uM preincubated for 48 hrs followed by substrate addition measured after 30 mins by fluorescence analysis relative to control
T1 sequence (whole entry): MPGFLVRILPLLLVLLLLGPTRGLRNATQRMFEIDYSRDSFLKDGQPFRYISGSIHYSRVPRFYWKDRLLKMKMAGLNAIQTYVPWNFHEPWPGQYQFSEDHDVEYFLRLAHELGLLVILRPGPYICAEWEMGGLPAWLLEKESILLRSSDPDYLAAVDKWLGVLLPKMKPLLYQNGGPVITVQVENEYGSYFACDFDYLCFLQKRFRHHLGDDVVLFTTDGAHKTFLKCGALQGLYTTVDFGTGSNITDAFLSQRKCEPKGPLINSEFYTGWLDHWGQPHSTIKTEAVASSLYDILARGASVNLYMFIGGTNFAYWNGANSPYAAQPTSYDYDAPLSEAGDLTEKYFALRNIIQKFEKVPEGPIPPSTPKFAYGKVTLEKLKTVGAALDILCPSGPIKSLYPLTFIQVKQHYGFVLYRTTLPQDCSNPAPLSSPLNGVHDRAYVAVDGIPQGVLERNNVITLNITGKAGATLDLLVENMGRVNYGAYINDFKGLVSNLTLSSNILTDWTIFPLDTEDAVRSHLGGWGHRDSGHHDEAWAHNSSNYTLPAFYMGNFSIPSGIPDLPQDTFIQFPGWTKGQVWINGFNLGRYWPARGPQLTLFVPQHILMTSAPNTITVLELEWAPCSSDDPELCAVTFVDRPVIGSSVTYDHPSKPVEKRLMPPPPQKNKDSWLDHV

[3] = system: Prunus dulcis; test: Inhibition of almond beta-glucosidase using p-nitrophenyl-beta-D-glucopyranoside as substrate preincubated with substrate followed by protein addition measured after 30 mins by microplate reader analysis
[4] = target: T2, Beta-galactosidase (Homo sapiens, UniProt P16278); test: Inhibition of human beta-galactosidase expressed in mouse fibroblasts using 4-methylumbelliferone -conugated beta-D-galactoside as substrate incubated for 30 mins at pH 4.5 followed by substrate addition by fluorescence analysis
T2 sequence (P16278 whole entry): T1 sequence (whole entry) with C201R

[5] = target: T3, Beta-galactosidase (Bos taurus) (UniProt Q58D55); test: Inhibition of bovine liver beta-galactosidase using p-nitrophenyl-beta-D-galactopyranoside as substrate preincubated with substrate followed by protein addition measured after 30 mins by microplate reader analysis
T3 sequence (whole entry): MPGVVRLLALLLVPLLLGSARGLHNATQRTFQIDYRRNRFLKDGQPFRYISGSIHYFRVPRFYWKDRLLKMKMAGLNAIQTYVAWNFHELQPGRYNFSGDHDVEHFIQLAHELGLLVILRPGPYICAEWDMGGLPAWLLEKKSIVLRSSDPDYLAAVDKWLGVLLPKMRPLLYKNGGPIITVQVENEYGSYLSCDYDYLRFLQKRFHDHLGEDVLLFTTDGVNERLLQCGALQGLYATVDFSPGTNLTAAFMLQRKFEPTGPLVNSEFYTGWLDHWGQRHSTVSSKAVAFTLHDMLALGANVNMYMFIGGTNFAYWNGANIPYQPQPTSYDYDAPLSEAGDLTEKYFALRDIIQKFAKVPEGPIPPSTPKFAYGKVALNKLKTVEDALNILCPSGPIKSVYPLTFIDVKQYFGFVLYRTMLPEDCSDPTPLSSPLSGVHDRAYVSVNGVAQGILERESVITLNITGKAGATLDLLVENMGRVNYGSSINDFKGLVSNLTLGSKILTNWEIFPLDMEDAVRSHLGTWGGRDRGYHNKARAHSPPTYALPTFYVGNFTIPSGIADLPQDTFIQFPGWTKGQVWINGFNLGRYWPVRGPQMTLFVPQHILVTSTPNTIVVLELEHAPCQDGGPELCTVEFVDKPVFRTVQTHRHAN

[6] = Inhibition of human alpha-galactosidase isolated from human fibroblasts incubated for 30 mins using […] analysis
[7] = target: T4, Lysosomal acid glucosylceramidase (Homo sapiens, UniProt P04062); test: Inhibition of human beta-glucosidase isolated from human fibroblasts incubated for 30 mins using […] analysis
T4 sequence (P04062 whole entry): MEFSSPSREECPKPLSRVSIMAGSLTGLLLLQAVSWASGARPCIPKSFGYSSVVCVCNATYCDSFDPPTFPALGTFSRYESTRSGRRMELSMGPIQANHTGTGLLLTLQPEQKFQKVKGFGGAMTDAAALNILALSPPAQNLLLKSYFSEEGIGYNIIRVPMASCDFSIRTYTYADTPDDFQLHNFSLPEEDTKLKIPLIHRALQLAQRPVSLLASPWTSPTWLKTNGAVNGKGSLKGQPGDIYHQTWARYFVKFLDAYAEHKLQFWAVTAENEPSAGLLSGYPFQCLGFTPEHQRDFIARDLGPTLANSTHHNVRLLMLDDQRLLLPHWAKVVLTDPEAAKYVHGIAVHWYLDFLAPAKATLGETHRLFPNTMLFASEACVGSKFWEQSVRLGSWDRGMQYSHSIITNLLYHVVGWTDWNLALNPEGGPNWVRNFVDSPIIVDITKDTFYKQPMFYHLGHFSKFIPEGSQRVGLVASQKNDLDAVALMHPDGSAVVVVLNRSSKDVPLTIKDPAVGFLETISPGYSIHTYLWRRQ

[8] = system: T1, Beta-galactosidase (Homo sapiens), P16278 [R201C]; test: Activation of human beta-galactosidase R201C mutant expressed in mouse fibroblasts using 4-methylumbelliferone -conugated beta-D-galactoside as substrate at 2 uM preincubated for 48 hrs followed by substrate addition measured after 30 mins by fluorescence analysis relative to control
[9] = system: T1, Beta-galactosidase (Homo sapiens), P16278 [R201C]; test: Activation of human beta-galactosidase R201C mutant expressed in mouse fibroblasts using 4-methylumbelliferone -conugated beta-D-galactoside as substrate at 0.2 uM preincubated for 48 hrs followed by substrate addition measured after 30 mins by fluorescence analysis relative to control
[10] = Cytotoxicity against human fibroblasts at 20 uM by LDH assay; format: cell-based; conditions: fibroblast

| SMILES | Activity [1] | fold change (FC) [2] | inhibition [3] | IC50 [4] | inhibition [5] | IC50 [6] | IC50 [7] | Activity [8] | Activity [9] | Activity [10] | fold change (FC) [8] |
| --- | --- | --- | --- | --- | --- | --- | --- | --- | --- | --- | --- |
| CCCCCCN[C@@H]1C=C[C@H](O)[C@H](O)[C@H]1O.Cl | < 10% | 4.6 | Active | 0.056 mM | Active | > 1 mM | > 1 mM |  |  |  |  |
| Cl.O[C@@H]1[C@@H](O)[C@H](NCc2ccccc2)C=C[C@@H]1O | < 10% | 1.5 | Active | 0.18 mM | Active | > 1 mM | > 1 mM |  |  |  |  |
| CC(C)CCN[C@@H]1C=C[C@H](O)[C@H](O)[C@H]1O.Cl | < 10% | 4.6 | Active | 0.028 mM | Active | > 1 mM | > 1 mM |  |  |  |  |
| CCC(CC)CN[C@@H]1C=C[C@H](O)[C@H](O)[C@H]1O.Cl | < 10% | 7.4 | Active | 0.015 mM | Active | > 1 mM | > 1 mM |  |  |  |  |
| CCC(CC)N[C@@H]1C=C[C@H](O)[C@H](O)[C@H]1O.Cl | < 10% | 1.2 | Active | > 1 mM | Active | > 1 mM | > 1 mM |  |  |  |  |
| CCCCCCCCN[C@@H]1C=C(C)[C@H](O)[C@H](O)[C@H]1O |  | 5.2 |  | 0.046 mM |  | > 1 mM | > 1 mM | Active | Active |  |  |
| Cl.O[C@@H]1[C@@H](O)[C@H](NCC2CCCCC2)C=C[C@@H]1O | 3.8% | 8.5 | Active | 0.06 mM | Active | > 1 mM | > 1 mM |  |  | 0.7% |  |
| CCCCCN[C@@H]1C=C[C@H](O)[C@H](O)[C@H]1O.Cl | < 10% | 4 | Active | 0.019 mM | Active | > 1 mM | > 1 mM |  |  |  |  |
| CCCCCCCCN[C@@H]1C=C(CO)[C@H](O)[C@H](O)[C@H]1O.Cl | 7.5% | 3.6 |  | 0.0017 mM |  | > 1 mM | > 1 mM |  |  | 1.1% | 4.6 |
| Cl.O[C@@H]1[C@@H](O)[C@H](NCCc2ccccc2)C=C[C@@H]1O | < 10% | 4.2 | Active | 0.086 mM | Active | > 1 mM | > 1 mM |  |  |  |  |
| CCCCCCCCCCN[C@@H]1C=C[C@H](O)[C@H](O)[C@H]1O.Cl | 54% | 1.6 | Active | 0.043 mM | Active | > 1 mM | > 1 mM |  |  | 24% |  |
| Cl.O[C@@H]1[C@@H](O)[C@H](NC2CCCCC2)C=C[C@@H]1O | < 10% | 1.4 | Active | 0.49 mM | Active | > 1 mM | > 1 mM |  |  |  |  |
| Cl.OCCCN[C@@H]1C=C[C@H](O)[C@H](O)[C@H]1O | < 10% | 0.9 | Active | > 1 mM | Active | > 1 mM | > 1 mM |  |  |  |  |
| CCCCN[C@@H]1C=C[C@H](O)[C@H](O)[C@H]1O.Cl | < 10% | 2 | Active | 0.05 mM | Active | > 1 mM | > 1 mM |  |  |  |  |
| CCCCCCCCN[C@@H]1C=C[C@H](O)[C@H](O)[C@H]1O.Cl | 25% | 5.4 | Active | 0.12 mM | Active | > 1 mM | > 1 mM | Active | Active |  |  |
| CC(C)CN[C@@H]1C=C[C@H](O)[C@H](O)[C@H]1O.Cl | < 10% | 4.6 | Active | 0.041 mM | Active | > 1 mM | > 1 mM |  |  |  |  |
